Activity calls are given as the source filed them. The calls are words filed in the database; no cut-off is given here.
How the values were obtained:
[1] = Antiproliferative activity against human KB-S15 cells expressing P-gp170/MDR after 72 hrs by methylene blue assay; format: functional, cell-based; conditions: KB-S15, 72 h
[2] = Antiproliferative activity against human KB-7d cells expressing MRP after 72 hrs by methylene blue assay; format: functional, cell-based; conditions: KB7D
HT-29 = test: Antiproliferative activity against human HT-29 cells after 72 hrs by methylene blue assay; format: functional, cell-based
[3] = Antiproliferative activity against human KB-VIN10 cells expressing P-gp170/MDR after 72 hrs by methylene blue assay; format: functional, cell-based; conditions: KB-VIN10, 72 h
KB = test: Antiproliferative activity against human KB cells after 72 hrs by methylene blue assay; format: functional, cell-based
[4] = Antiproliferative activity against human MKN45 cells after 72 hrs by methylene blue assay; format: functional, cell-based; conditions: MKN-45, 72 h
Tubulin = Tubulin (Bos taurus, UniProt Q6B856+Q862F3); test: Inhibition of bovine brain tubulin polymerization after 30 mins
Sequence of Tubulin (Q6B856 whole entry): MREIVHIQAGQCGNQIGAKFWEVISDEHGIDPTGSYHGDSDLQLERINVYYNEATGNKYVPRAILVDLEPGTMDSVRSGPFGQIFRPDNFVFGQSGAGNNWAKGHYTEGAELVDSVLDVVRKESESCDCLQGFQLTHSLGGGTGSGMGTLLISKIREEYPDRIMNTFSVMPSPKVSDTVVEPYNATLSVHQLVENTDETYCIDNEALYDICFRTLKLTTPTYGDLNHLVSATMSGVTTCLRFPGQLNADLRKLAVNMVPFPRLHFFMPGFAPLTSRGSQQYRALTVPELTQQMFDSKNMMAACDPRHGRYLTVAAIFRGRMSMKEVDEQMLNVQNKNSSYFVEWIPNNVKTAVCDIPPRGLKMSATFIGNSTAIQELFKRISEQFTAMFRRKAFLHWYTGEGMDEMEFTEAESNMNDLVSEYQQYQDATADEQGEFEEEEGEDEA
Sequence of Tubulin (Q862F3 whole entry): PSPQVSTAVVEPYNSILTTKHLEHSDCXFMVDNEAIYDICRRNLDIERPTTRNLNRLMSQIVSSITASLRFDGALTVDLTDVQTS

Tubulin (Homo sapiens) = Tubulin (Homo sapiens) (UniProt P68371+Q9H4B7+P0DPH7+P68366+Q13509+Q71U36+P04350+Q3ZCM7+P07437+P68363+Q9BQE3+Q6PEY2+Q13885+Q9BVA1+Q9BUF5); test: Displacement of 1 uM of [3H]colchicine from biotin-labeled tubulin (unknown origin) after 2 hrs by scintillation proximity assay; format: protein-complex assay
HUVEC [5] = test: Antivascular activity in HUVEC assessed as inhibition of VEGF-induced capillary tube formation at 50 nM after 4 hrs by microscopic analysis relative to control; format: functional, Homo sapiens; parameters: scale not given: the % may be the effect or the level left
HUVEC [6] = test: Antivascular activity in HUVEC assessed as inhibition of VEGF-induced capillary tube formation at 100 nM after 4 hrs by microscopic analysis relative to control; format: functional, Homo sapiens; parameters: scale not given: the % may be the effect or the level left
HUVEC [7] = test: Antivascular activity in HUVEC assessed as inhibition of VEGF-induced capillary tube formation at 500 nM after 4 hrs by microscopic analysis relative to control; format: functional, Homo sapiens; parameters: scale not given: the % may be the effect or the level left
HUVEC [8] = test: Antivascular activity in HUVEC assessed as inhibition of VEGF-induced capillary tube formation at 2500 nM after 4 hrs by microscopic analysis relative to control; format: functional, Homo sapiens; parameters: scale not given: the % may be the effect or the level left
[9] = Toxicity in HUVEC assessed as cell viability at 50 nM after 4 hrs relative to control; format: cell-based; conditions: human, HUVEC cells; read-out: Activity
[10] = Toxicity in HUVEC assessed as cell viability at 100 nM after 4 hrs relative to control; format: cell-based; conditions: human, HUVEC cells; read-out: Activity
[11] = Toxicity in HUVEC assessed as cell viability at 500 nM after 4 hrs relative to control; format: cell-based; conditions: human, HUVEC cells; read-out: Activity
[12] = Toxicity in HUVEC assessed as cell viability at 2500 nM after 4 hrs relative to control; format: cell-based; conditions: human, HUVEC cells; read-out: Activity
HUVEC [13] = test: Antivascular activity in HUVEC assessed as inhibition of VEGF-induced capillary tube formation at 20 nM after 4 hrs by microscopic analysis relative to control; format: functional, Homo sapiens; parameters: scale not given: the % may be the effect or the level left
[14] = Toxicity in HUVEC assessed as cell viability at 20 nM after 4 hrs relative to control; format: cell-based; conditions: human, HUVEC cells; read-out: Activity

IC50 (KB) | IC50 (Tubulin) | inhibition (Tubulin (Homo sapiens)) | SMILES | IC50 [1] | IC50 [2] | Activity (HT-29) | IC50 [3] | IC50 [4] | also measured
33 nM | 4900 nM | 84.4% | COc1cc(C(=O)c2ccc3c(ccn3C)c2)c(O)c(OC)c1OC | 16.2 nM | 18.2 nM | Active | 20.8 nM | 93.7 nM | Activity (HUVEC [5]): 72%; Activity (HUVEC [6]): 53%; Activity (HUVEC [7]): 41%; Activity (HUVEC [8]): 0%; viability at 4 h, 0.05 µM [9]: 95%; viability at 4 h, 0.1 µM [10]: 94%; viability at 4 h, 0.5 µM [11]: 97%; viability at 4 h, 2.5 µM [12]: 95%
57.3 nM | 8200 nM | 66.3% | COc1cc(C(=O)c2cccc3c2ccn3C)c(O)c(OC)c1OC | 32.6 nM | 40 nM | Active | 42.8 nM | 55.4 nM | –
7700 nM | – | – | COc1cc(C(=O)c2ccnc3ccccc23)c(O)c(OC)c1OC | – | – | Active | – | 5960 nM | –
8.8 nM | 4200 nM | 87.2% | COc1ccc2c(C(=O)c3cc(OC)c(OC)c(OC)c3O)c[nH]c2c1 | 5.8 nM | 8.5 nM | Active | 9.5 nM | 10.5 nM | Activity (HUVEC [5]): 72%; Activity (HUVEC [6]): 49%; Activity (HUVEC [7]): 0%; Activity (HUVEC [8]): 0%; viability at 4 h, 0.05 µM [9]: 100%; viability at 4 h, 0.1 µM [10]: 96%; viability at 4 h, 0.5 µM [11]: 93%; viability at 4 h, 2.5 µM [12]: 99%
230 nM | – | – | COc1ccc2nc(C(=O)c3cc(OC)c(OC)c(OC)c3O)ccc2c1 | – | – | Active | – | 1160 nM | –

Second part, the molecule before the results:

SMILES | IC50 (KB) | IC50 (Tubulin) | inhibition (Tubulin (Homo sapiens)) | IC50 [1] | IC50 [2] | Activity (HT-29) | IC50 [3] | IC50 [4] | also measured
CC[C@]1(O)C[C@H]2CN(CCc3c([nH]c4ccccc34)[C@@](C(=O)OC)(c3cc4c(cc3OC)N(C=O)[C@H]3[C@@](O)(C(=O)OC)[C@H](OC(C)=O)[C@]5(CC)C=CCN6CC[C@]43[C@@H]65)C2)C1 [VINCRISTINE] | – | – | – | 2.1 nM | 1.5 nM | – | – | – | –
COc1cc([C@@H]2c3cc4c(cc3[C@@H](O[C@@H]3O[C@@H]5CO[C@@H](C)O[C@H]5[C@H](O)[C@H]3O)[C@H]3COC(=O)[C@H]23)OCO4)cc(OC)c1O [ETOPOSIDE] | – | – | – | 3500 nM | – | – | – | – | –
COc1ccc(/C=C\c2cc(OC)c(OC)c(OC)c2)cc1O [COMBRETASTATIN A4] | – | – | – | – | – | – | – | 3.2 nM | Activity (HUVEC [13]): 0%; viability at 4 h, 0.02 µM [14]: 94%
CC(=O)O[C@H]1C(=O)[C@@]2(C)[C@H]([C@H](OC(=O)c3ccccc3)[C@]3(O)C[C@H](OC(=O)[C@H](O)[C@@H](NC(=O)c4ccccc4)c4ccccc4)C(C)=C1C3(C)C)[C@]1(OC(C)=O)CO[C@@H]1C[C@@H]2O [PACLITAXEL] | – | – | – | – | 8.4 nM | – | – | – | –
COc1cc(C(=O)c2ccc3ncccc3c2)c(O)c(OC)c1OC | 22.9 nM | – | – | – | – | Active | – | 116 nM | –

— ChEMBL document CHEMBL3593220, “Antimitotic and antivascular activity of heteroaroyl-2-hydroxy-3,4,5-trimethoxybenzenes” (Bioorg Med Chem, 2015)
